What all share (assay type): cell-based, human
One experiment relates to HIF-1α. In words: In vivo HIF-1α ubiquitination in HepG2 cells (Western blotting). To be noted: normoxic condition, 6 hours, CQ 100 μM, TPEN 5 μM. A general note: A western blot detects proteins with antibodies after separation by electrophoresis.
The test system of a further experiment is HIF-1α and CBP. Description: Co-immunoprecipitation of HIF-1α with CBP in HepG2 cells. To be noted: normoxic, CQ 100 μM, MG132 5 μM 6 hours. As to the method:
Total cell extract was prepared by the method of Jaakkola, et al (Jaakkola et al., Science 292:468-472, 2001). For immunoprecipitation, 200 μg of samples of whole cell lysates were reacted with 1 μg of anti-mouse IgG (Santa Cruz Biotechnology, USA) and 10 μl of 0.5% ImmunoPure immobilized protein A/G gel (Pierce, USA) for 30 minutes at 4° C. After removing protein A/G gel, the cleared extracts were mixed with 1 μg of anti-CBP antibody (Santa Cruz Biotechnology, USA). After addition of 15 μl of 0.5% ImmunoPure immobilized protein A/G gel, they were left at 4° C. for 16 hours. The immunoprecipitates were pelleted, washed four times with PBS and resuspended in SDS sample buffer. Samples were then boiled for 5 minutes and run on 8% SDS-polyacrylamide gels, and the proteins were transferred to nitrocellulose membranes by semi-dry transfer (Trans-Blot SD, Bio-Red, Hercules, USA). Co-immunoprecipitated proteins were reacted with anti-human HIF-1α antibody (BD, Pharmingen, USA) and/or anti-CBP antibody and visualized by enhanced chemiluminescence, according to the manufacturer's instruction (Amersham, USA), with anti-mouse or anti-rabbit Ig conjugated with horseradish peroxidase (HRP) as a secondary antibody.

The test system of experiment [1] is HRE (hypoxia-response element). In words: HRE dependent gene expression in HepG2 hepatoma cells (luciferase reporter gene assay). To be noted: p(HRE)4-luc, TPEN 5, 10 μM, CQ 10, 50 μM, 16 hours. The procedure: Human HepG2 hepatoma cells were grown to the density of 5×10^4 and then transfected with 100 ng of HRE-driven reporter plasmid, p(HRE)4-luc together with plasmid pCHO110 which encodes β-galactosidase. The transfected human HepG2 hepatoma cells were cultured under normoxic condition and hypoxic condition and then treated with TPEN (5, 10 μM) and CQ (10, 50 μM) for 16 hours each. 48 hours after the transfection, luciferase activities were analyzed using the reporter gene assay system (Promega, USA) and normalized by β-galactosidase activities.
A general note: Reporter assays use an easily measured gene product as a stand-in for the process of interest.

For another experiment, the system named is VEGF. Description: Effects of CQ and TPEN on the expression of VEGF, a HIF-1α target gene (RT-PCR). To be noted: TPEN 5 μM. From the text:
ID. […] ID. NO: 2 (5′-[…]-3′). […] ID. […] ID. NO: 4 (5′-[…]-3′).

Take `c1ccc(CN(CCN(Cc2ccccn2)Cc2ccccn2)Cc2ccccn2)nc1` [TPEN, tetrakis-(2-pyridylmethyl)ethanediamine]: in the experiment with HIF-1α, the “HIF-1α ubiquitination in cells” value is reported as “inhibited HIF-1α ubiquitination”. Moreover, the “interaction of HIF-1α with CBP in cells” value with HIF-1α and CBP was “inhibited the interaction between HIF-1α and CBP”. In addition, in experiment [1], the “HIF-1α dependent hypoxia-response element (HRE) activity” value is given as “but not TPEN induced HIF-1α dependent hypoxia-response element (HRE) activity”. Besides, the VEGF expression result in the experiment with VEGF (HepG2 cells, normoxic, CQ 10, 100 μM) is “differed in their effects on VEGF expression”; with VEGF (SH-SY5Y cells, normoxic condition, CQ 10, 100 μM), “reduced VEGF expression”; in the experiment with VEGF (hypoxic condition, 16 hours, CQ 100 μM, SH-SY5Y and HepG2 cells) it was “none of the control, TPEN and CQ increased VEGF expression”.

The values above are taken from patent US8658672B2, “HIF-1α activating agent” (University of Seoul Foundation of Industrial and Academic …, priority 2006, dated 2014).
